Blank lines part the entries; values can stand above or below the compound they belong to.
What was measured:
M-Ras [1] = assay: M-Ras induction in mitogen stimulated splenocytes (RT-PCR); assay type: cell-based, DBA2 mouse; settings: DBA2 splenocytes, 5 ug/ml concanavalin A, 10 μg/ml aminosterol, 24 hours
Method: Splenocytes from the DBA2 bronchial hyperresponsive mouse were treated with aminosterol compounds to test for their ability to block the induction of M-Ras in response to mitogens. This group of aminosterols was identified from the liver of the dogfish shark and as a class appear to be antiproliferative. This series of aminosterols was assayed for their ability to inhibit M-Ras expression and TH2 activity in mitogen stimulated splenocytes from the DBA2 mouse.
Splenocytes were isolated from naive DBA2 mice by aseptic removal of spleens from anesthetized mice. Spleens were then minced by sterilized scissors and tissue was passed through a sterilized #60 wire mesh sieve. Cells were resuspended in RPMI medium and washed twice in the same medium. Cells were then resuspended in lysis buffer (4.15 g NaCl, 0.5 g KHCO3, 0.019 g EDTA in 500 ml of dH2O) to lyse red blood cells. Cells were incubated at 37° C. for 5 minutes and resuspended in RPMI plus heat inactivated 10% fetal bovine serum. Cells were then spun down and resuspended in RPMI growth media (as above) plus 5 ug/ml of concanavalin A. Cell cultures were treated with 10 μg/ml of the aminosterol compounds for 24 hours and were then harvested for RNA isolation using the Trizol method described by the manufacturer (Gibco-BRL). […]

M-Ras [2] = assay: M-Ras prenylation in transfected BW5147 cells (immunoprecipitation, SDS-PAGE migration); assay type: cell-based, murine; settings: BW5147 cells with pEF-BOS-M-Ras, 4 mg/ml lovastatin, three days, versus untreated
Method: BW5147, a murine thyoma cell line that grows in the absence of any cytokine, was stably transfected with an expression vector containing wild type M-Ras cDNA (pEF-BOS-M-Ras). After two weeks of selection in 3 μg/ml of Puromycin, cells were treated for three days with different compounds previously reported to work as inhibitors of p21 Ras prenylation. Cells were then harvested and proteins were extracted and immunoprecipitated with a rabbit antibody (JAL4) specific for M-Ras. Immunoprecipitates were electrophoretically resolved by SDS-PAGE (18%) and transferred to PVDF membrane. Immunoblots were successively probed with JAL4 antibody (1:1500 dilution) to detect the expression and migratory pattern of M-Ras protein. The non-prenylated form of p21 Ras migrates slower than the fully processed form. […] In contrast, cells transfected with pEF-BOS-M-Ras overexpressed the M-Ras protein.

TS2 cells [3] = assay: Proliferation of TS2 cells with lovastatin (3H-thymidine incorporation); assay type: cell-based, murine; settings: Mus musculus, 72 h; IL-2 or IL-9 5 ng/ml, different concentrations of lovastatin, three days; maximal inhibition; read-out: inhibition of cellular proliferation of TS2 cells as compared to untreated cells
Method: To further test the role of M-Ras in IL-9 signaling, yet another IL-9 responsive cell line was treated with the farnesyl transferase inhibitor lovastatin to determine if the Ras pathway was utilized for proliferation. TS2 cells were washed three times and plated in 96-well plates at a density of 1,000 cells per well. IL-2 or IL-9 was added successively at a concentration of 5 ng/ml together with different concentrations of lovastatin as indicated. DMSO was included as the vehicle control. After three days, the rate of proliferation was determined by ^3H-thymidine incorporation ([…] per well) and percent of inhibition was obtained from the ratio between treated and untreated cells.

p38 MAPK = p38 MAPK (Homo sapiens, UniProt Q16539); settings: Lee et al., 1994; Gallagher et al., 1997; cited from earlier work
p38 MAPK, sequence (Q16539 whole entry): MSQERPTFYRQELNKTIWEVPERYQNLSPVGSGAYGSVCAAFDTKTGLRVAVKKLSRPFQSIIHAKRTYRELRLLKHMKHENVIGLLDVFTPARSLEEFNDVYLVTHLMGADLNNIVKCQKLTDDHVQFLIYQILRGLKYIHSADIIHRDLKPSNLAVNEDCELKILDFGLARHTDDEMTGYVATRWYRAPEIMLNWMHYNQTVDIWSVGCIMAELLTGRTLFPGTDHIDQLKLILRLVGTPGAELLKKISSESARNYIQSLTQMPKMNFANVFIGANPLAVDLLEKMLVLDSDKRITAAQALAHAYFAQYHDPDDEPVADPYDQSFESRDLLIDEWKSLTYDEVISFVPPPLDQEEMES

[4] = tested on: ERK1, 2 or 5 family or JNK family of MAPK; settings: Lee et al., 1994; Gallagher et al., 1997; cited from earlier work
TS2 cells [5] = assay: Cytokine-induced proliferation of TS2 cells (tritiated thymidine); assay type: cell-based, murine
Method: TS2 cells were grown in DMEM medium supplemented with 10% fetal calf serum, 50 μM 2-mercaptoethanol, 0.55 mM L-arginine, 0.24 mM L-asparagine and 1.25 mM L-glutamine.
(§1) The murine T-cell line TS2 grows in response to IL-2 and IL-9 in vitro. […] Cells which were maintained in medium described in Example 1 plus IL-2, were washed once with phosphate-buffered saline and plated at 3000 cells per well in the presence of 200 U/ml IL-2 or 200 U/ml of IL-9. Cells were grown for three days in the presence of PD98959 (10 μM) and then pulsed for four hours with tritiated thymidine. The cells were then harvested onto glass fiber filters and analyzed by scintillation counting.
The data is shown as percent growth as compared to cytokine only.

[6] = tested on: Elk (a target of the MAPK pathway); assay: PathDetect signal transduction pathway reporting system (GAL4-Elk luciferase reporter) with activated M-Ras mutants; assay type: cell-based; settings: HEK293 cells, GAL4-Elk fusion
Excerpt: In order to characterize the pathway stimulated by activated M-Ras, applicants tested the ability of activated mutants to up-regulate the mitogen-activated protein kinase (MAPK) pathway or the c-Jun N-terminal kinase (JNK) pathway using an in vitro signal transduction pathway reporting system (FIG. 11). This luciferase-based assay allows for indirect measurement of Elk (target of the MAPK pathway) or Jun (target of the JNK pathway) protein activation. Activated MEK1, which activates Elk, served as a positive control for the MAPK pathway whereas activated MEKK was used as a positive control for the JNK pathway because it activates Jun.
The results of this experiment are shown in FIG. 12 for the MAPK pathway. […] In addition, M-Ras-1, M-Ras-2 and M-Ras-3 mutants activated Elk, indicating M-Ras induced activation of the MAPK pathway.
To characterize the activation pathway triggered by activated M-Ras, the ability of the M-Ras mutants described in Example 8 to activate the mitogen-activated protein kinase (MAPK) pathway or the c-JUN N-terminal Kinase (JNK) pathway was tested using the PathDetect in vivo signal transduction pathway reporting system (Stratagene). […] As expected, significant luciferase activity was detected when cells expressed the GAL4-Elk fusion protein together with activated MEK-1. […]

BaF3 cells = assay: Proliferation of BaF3 cells transfected with wild-type or constitutively active mutant M-Ras; assay type: cell-based, murine
Method: To assess the ability of M-Ras to be able to exert a constitutive activity on cellular proliferation and to abrogate the requirement of cytokines in a cytokine-dependent cell line, site directed mutagenesis was used to generate mutant M-Ras proteins to assess their activities. Alignment of M-Ras to the H- and K-Ras proteins permitted identification of potential residues that may result in constitutive activation of M-Ras. Two mutants were prepared at codon 22, substituting a Val or Lys for Gly while another mutant was prepared at codon 71 substituting a Lys for Glu. These substitutions had been previously shown to result in active Ras molecules (FIG. 8). […] Mutant Ras cDNA was then cloned into the NotI-XbaI cloning site of the mammalian expression vector pEF-BOS which contains a puromycin resistance gene for selection of transfected cells. These expression vectors were then transfected into the IL-3 dependent cell line BaF3 and it was assayed for cytokine-independent growth. BaF3 cells were transfected with the three mutant M-Ras vectors, the wild type M-Ras vector or an empty vector by electroporation using the Gene Pulsar II (Bio-Rad). The settings used were […], 74 ohms and 300 volts with 50 μg of sterile DNA. Pooled transfected cells were selected with puromycin (3 μg/ml) and M-Ras expression was determined by Northern blot. All constructs expressed equivalent amounts of exogenous M-Ras.
as §1, with “vitro. […] In addition, the MAPK inhibitor PD98059 has the ability to block M-Ras signaling as described in Example 10.” for “vitro.”, “Cells were grown for three days in the presence of PD98959 (10 μM) and then pulsed for four hours with tritiated thymidine.” left out
Cells were plated at 3000 cells/well in the presence or absence of IL-3 and 10 μm PD98059 and assessed for proliferation as described in Example 12. […]

TS1-RA3 cells = assay: IL-9 induced proliferation of TS1-RA3 cells (acid phosphatase assay); assay type: cell-based, murine; settings: grown in IL-9, varying amounts of manumycin A, 4 days; maximal inhibition
Method: Ras molecules have been previously shown to function after prenlylation via farnesyl transferase and subsequent attachment to the inner cytoplasmic membrane. To test the role of M-Ras in IL-9 signaling, IL-9 responsive cells were treated with the farnesyl transferase inhibitor manumycin A in a proliferation assay to determine if the Ras pathway was utilized for proliferation. TS1-RA3 cells, which are a murine TH2 lymphocyte cell line expressing human IL-9 receptor by a transfected expression construct, were grown in the presence of IL-9 and in the absence or in varying amounts of manumycin A for 4 days.

SMILES: CC(C)[C@@H](CC[C@@H](C)[C@H]1CC[C@H]2[C@@H]3[C@H](O)C[C@H]4C[C@@H](NCCCNCCCCNCCCN)CC[C@]4(C)[C@H]3CC[C@]12C)OS(=O)(=O)O [compound 1436]
expression of M-Ras (M-Ras [1]): no effect

SMILES: CC[C@H](C)C(=O)O[C@H]1C[C@@H](C)C=C2C=C[C@H](C)[C@H](CC[C@@H]3C[C@@H](O)CC(=O)O3)[C@H]21 [lovastatin]
migration of M-Ras protein on SDS-PAGE (non-prenylated form migrates slower) (M-Ras [2]): migrated higher
inhibition at 0.005 µg/mL (TS2 cells [3]): ≤ 95%

SMILES: Oc1ccc(-c2nc(-c3ccncc3)c(-c3ccc(F)cc3)[nH]2)cc1 [SB202190]
inhibition of p38 MAPK (p38 MAPK): specifically inhibit
inhibition of ERK1, 2 or 5 family or JNK family of MAPK [4]: not
ability of TS2 cells to proliferate in response to IL-2 (TS2 cells [5]; IL-2, percent growth compared to cytokine only): not
ability of TS2 cells to proliferate in response to IL-9 (TS2 cells [5]; IL-9, percent growth compared to cytokine only): blocked

luciferase induction by M-Ras-1, M-Ras-2 and M-Ras-3 mutants [6]: blocked
SMILES: COc1cccc(-c2cc(=O)c3ccccc3o2)c1N [PD98059]
proliferation of cells expressing the mutant M-Ras gene (BaF3 cells; BaF3, absence of IL-3, 10 μm PD98059): blocked
IL-3 induced cellular proliferation of M-Ras wild-type transfected cells (BaF3 cells; BaF3, with IL-3, 10 μm PD98059): no activity
proliferation of mutant M-Ras cells grown with IL-3 (cellular toxicity check) (BaF3 cells; BaF3, with IL-3, 10 μm PD98059): could proliferate
growth of cells grown in IL-2 (TS2 cells [5]; 200 U/ml IL-2, inhibitor 10 μM, three days): no inhibitory activity
growth of cells grown in IL-9 (TS2 cells [5]; 200 U/ml IL-9, inhibitor 10 μM, three days): growth inhibited

SMILES: CCCC[C@@H](C)/C=C(C)/C=C(\C)C(=O)NC1=C[C@@](O)(/C=C/C=C/C=C/C(=O)NC2=C(O)CCC2=O)[C@@H]2O[C@@H]2C1=O [manumycin A]
inhibition of cellular proliferation of TS1-RA3 cells as compared to untreated cells (TS1-RA3 cells): up to 76%

Reference: US20020156013A1, “Asthma associated factors as targets for treating atopic allergies including asthma and related disorders” (priority 1997, published 2002)
